From article PMC7481290, “Halogenation as a tool to tune antimicrobial activity of peptoids” (Scientific Reports, 2020)
≈ marks a conversion by molar mass, not a printed value. Non-standard residues stand in square brackets, D forms with d. Residues, ends and D or L forms follow the SMILES beside them. Gly(Nα-4-Cl-benzyl) = O=C(O)CNCc1ccc(Cl)cc1; N(4-Br-benzyl)Gly = O=C(O)CNCc1ccc(Br)cc1; N(4-F-Bzl)Gly = O=C(O)CNCc1ccc(F)cc1; NBzl(4-I)Gly = O=C(O)CNCc1ccc(I)cc1; Nphe = O=C(O)CNCc1ccccc1; Nlys = NCCCCNCC(=O)O

Columns and labels:
[1] = system: P. aeruginosa PA01 (H103); format: cell-based, Pseudomonas aeruginosa; settings: H103, 18 h
Experimental: (§1) Bacterial growth inhibition was determined by using broth microdilution according to the Clinical Laboratory Standards Institute[43]. The antibacterial activity of peptoids was tested against S. aureus ATCC 25923, ATCC29213, and methicillin resistant S. aureus USA 300, methicillin resistant S. epidermidis ATCC 51625, a biofilm producing methicillin resistant S. epidermidis ET-024[44], P. aeruginosa Pa01 (H103), and E. coli ATCC 25922. Bacteria, grown on agar plates for 18 h at 37 °C, were diluted to ∼1 × 10^8 CFU/mL in Mueller‐Hinton Broth II (MHB II). Twofold serial dilutions of peptoids in MHB II were inoculated with bacteria to achieve a final concentration of 5 × 10^5 CFU/mL in polypropylene 96 U‐well microtiter plates (Corning 3,897; ThermoFisher Scientific, Roskilde), followed by incubation at 37 °C in ambient air for 18 h. The MIC values were determined as the lowest concentration showing no visible bacterial growth. Experiments were performed twice (in technical triplicates) on 2 different days.

[2] = system: Methicillin-resistant S. epidermidis ET-024; format: cell-based, Staphylococcus epidermidis; settings: Methicillin-resistant ET-024, 18 h
Experimental: as §1

[3] = system: Methicillin-resistant S. epidermidis ATCC 51625; format: cell-based, Staphylococcus epidermidis; settings: ATCC 51625, 18 h
Experimental: as §1

[4] = system: Methicillin-resistant S. aureus USA 300; format: cell-based, Staphylococcus aureus; settings: USA 300, 18 h
Experimental: as §1

S. aureus ATCC 25923 = format: cell-based, Staphylococcus aureus; settings: ATCC 25923, 18 h
Experimental: as §1

S. aureus ATCC 29213 = format: cell-based, Staphylococcus aureus; settings: ATCC 29213, 18 h
Experimental: as §1

E. coli ATCC 25922 = format: cell-based, Escherichia coli; settings: ATCC 25922, 18 h
Experimental: as §1

For NCCCCNCC(=O)N(CC(=O)N(CCCCN)CC(=O)N(CC(=O)N(CCCCN)CC(=O)N(CC(=O)N(CCCCN)CC(=O)N(CC(N)=O)Cc1ccc(F)cc1)Cc1ccccc1)Cc1ccc(F)cc1)Cc1ccccc1 [Compound 15] (H-[Nlys][Nphe][Nlys][N(4-F-Bzl)Gly][Nlys][Nphe][Nlys][N(4-F-Bzl)Gly]-NH2), the “Minimal inhibitory concentration PA^g” value [1] was 512 µg/mL (≈ 444 µM), the “Minimal inhibitory concentration MRSE^d” value [2] was 128 µg/mL (≈ 111 µM) and the “Minimal inhibitory concentration MRSE^e” value [3] was 128 µg/mL (≈ 111 µM). The “Minimal inhibitory concentration MRSA^c” value [4] was > 512 µg/mL, the “Minimal inhibitory concentration SA^a” value (S. aureus ATCC 25923) was > 512 µg/mL and the “Minimal inhibitory concentration SA^b” value (S. aureus ATCC 29213) was > 512 µg/mL. The “Minimal inhibitory concentration EC^f” value (E. coli ATCC 25922) was 512 µg/mL (≈ 444 µM).
In the case of NCCCCNCC(=O)N(CC(=O)N(CCCCN)CC(=O)N(CC(=O)N(CCCCN)CC(=O)N(CC(N)=O)Cc1ccc(Cl)cc1)Cc1ccc(Cl)cc1)Cc1ccc(Cl)cc1 [Compound 3] (H-[Nlys][Gly(Nα-4-Cl-benzyl)][Nlys][Gly(Nα-4-Cl-benzyl)][Nlys][Gly(Nα-4-Cl-benzyl)]-NH2), the “Minimal inhibitory concentration PA^g” value [1] is reported as 512 µg/mL (≈ 541 µM), the “Minimal inhibitory concentration MRSE^d” value [2] is reported as 16 µg/mL (≈ 16.9 µM) and the “Minimal inhibitory concentration MRSE^e” value [3] is reported as 8 µg/mL (≈ 8.45 µM). For the same compound, the “Minimal inhibitory concentration MRSA^c” value [4] was 16 µg/mL (≈ 16.9 µM), the “Minimal inhibitory concentration SA^a” value (S. aureus ATCC 25923) was 64 µg/mL (≈ 67.6 µM) and the “Minimal inhibitory concentration SA^b” value (S. aureus ATCC 29213) was 64 µg/mL (≈ 67.6 µM). The “Minimal inhibitory concentration EC^f” value (E. coli ATCC 25922) was 512 µg/mL (≈ 541 µM).
With NCCCCNCC(=O)N(CC(=O)N(CCCCN)CC(=O)N(CC(=O)N(CCCCN)CC(=O)N(CC(=O)N(CCCCN)CC(=O)N(CC(N)=O)Cc1ccc(Cl)cc1)Cc1ccccc1)Cc1ccc(Cl)cc1)Cc1ccccc1 [Compound 16] (H-[Nlys][Nphe][Nlys][Gly(Nα-4-Cl-benzyl)][Nlys][Nphe][Nlys][Gly(Nα-4-Cl-benzyl)]-NH2) the “Minimal inhibitory concentration PA^g” value [1] was 512 µg/mL (≈ 431 µM), the “Minimal inhibitory concentration MRSE^d” value [2] was 8 µg/mL (≈ 6.74 µM) and the “Minimal inhibitory concentration MRSE^e” value [3] was 8 µg/mL (≈ 6.74 µM). The “Minimal inhibitory concentration MRSA^c” value [4] was 16 µg/mL (≈ 13.5 µM), the “Minimal inhibitory concentration SA^a” value (S. aureus ATCC 25923) was 16 µg/mL (≈ 13.5 µM) and the “Minimal inhibitory concentration SA^b” value (S. aureus ATCC 29213) was 64 µg/mL (≈ 53.9 µM). For the same compound, the “Minimal inhibitory concentration EC^f” value (E. coli ATCC 25922) was 256 µg/mL (≈ 216 µM).
With NCCCCNCC(=O)N(CC(=O)N(CCCCN)CC(=O)N(CC(=O)N(CCCCN)CC(=O)N(CC(=O)N(CCCCN)CC(=O)N(CC(N)=O)Cc1ccc(I)cc1)Cc1ccccc1)Cc1ccc(I)cc1)Cc1ccccc1 [Compound 18] (H-[Nlys][Nphe][Nlys][NBzl(4-I)Gly][Nlys][Nphe][Nlys][NBzl(4-I)Gly]-NH2) the “Minimal inhibitory concentration PA^g” value [1] was > 512 µg/mL, the “Minimal inhibitory concentration MRSE^d” value [2] was 8 µg/mL (≈ 5.84 µM) and the “Minimal inhibitory concentration MRSE^e” value [3] was 4 µg/mL (≈ 2.92 µM). For the same compound, the “Minimal inhibitory concentration MRSA^c” value [4] was 16 µg/mL (≈ 11.7 µM), the “Minimal inhibitory concentration SA^a” value (S. aureus ATCC 25923) was 32 µg/mL (≈ 23.4 µM) and the “Minimal inhibitory concentration SA^b” value (S. aureus ATCC 29213) was 32 µg/mL (≈ 23.4 µM). The “Minimal inhibitory concentration EC^f” value (E. coli ATCC 25922) was 256 µg/mL (≈ 187 µM).
With NCCCCNCC(=O)N(CC(=O)N(CCCCN)CC(=O)N(CC(=O)N(CCCCN)CC(=O)N(CC(N)=O)Cc1ccc(F)cc1)Cc1ccc(F)cc1)Cc1ccc(F)cc1 [Compound 2] (H-[Nlys][N(4-F-Bzl)Gly][Nlys][N(4-F-Bzl)Gly][Nlys][N(4-F-Bzl)Gly]-NH2) the “Minimal inhibitory concentration PA^g” value [1] was > 512 µg/mL, the “Minimal inhibitory concentration MRSE^d” value [2] was 128 µg/mL (≈ 143 µM) and the “Minimal inhibitory concentration MRSE^e” value [3] was 512 µg/mL (≈ 571 µM). For the same compound, the “Minimal inhibitory concentration MRSA^c” value [4] was 512 µg/mL (≈ 571 µM), the “Minimal inhibitory concentration SA^a” value (S. aureus ATCC 25923) was > 512 µg/mL and the “Minimal inhibitory concentration SA^b” value (S. aureus ATCC 29213) was > 512 µg/mL. The “Minimal inhibitory concentration EC^f” value (E. coli ATCC 25922) was 512 µg/mL (≈ 571 µM).
In the case of NCCCCNCC(=O)N(CC(=O)N(CCCCN)CC(=O)N(CC(=O)N(CCCCN)CC(=O)N(CC(=O)N(CCCCN)CC(=O)N(CC(=O)N(CCCCN)CC(=O)N(CC(=O)N(CCCCN)CC(=O)N(CC(N)=O)Cc1ccc(Cl)cc1)Cc1ccccc1)Cc1ccc(Cl)cc1)Cc1ccccc1)Cc1ccc(Cl)cc1)Cc1ccccc1 [Compound 34] (H-[Nlys][Nphe][Nlys][Gly(Nα-4-Cl-benzyl)][Nlys][Nphe][Nlys][Gly(Nα-4-Cl-benzyl)][Nlys][Nphe][Nlys][Gly(Nα-4-Cl-benzyl)]-NH2), the “Minimal inhibitory concentration PA^g” value [1] is reported as > 512 µg/mL, the “Minimal inhibitory concentration MRSE^d” value [2] is reported as 4 µg/mL (≈ 2.26 µM) and the “Minimal inhibitory concentration MRSE^e” value [3] is reported as 1 µg/mL (≈ 0.564 µM). For the same compound, the “Minimal inhibitory concentration MRSA^c” value [4] was 8 µg/mL (≈ 4.51 µM), the “Minimal inhibitory concentration SA^a” value (S. aureus ATCC 25923) was 16 µg/mL (≈ 9.03 µM) and the “Minimal inhibitory concentration SA^b” value (S. aureus ATCC 29213) was 8 µg/mL (≈ 4.51 µM). The “Minimal inhibitory concentration EC^f” value (E. coli ATCC 25922) was 256 µg/mL (≈ 144 µM).
For NCCCCNCC(=O)N(CC(=O)N(CCCCN)CC(=O)N(CC(=O)N(CCCCN)CC(=O)N(CC(=O)N(CCCCN)CC(=O)N(CC(N)=O)Cc1ccc(Cl)cc1)Cc1ccc(Cl)cc1)Cc1ccc(Cl)cc1)Cc1ccc(Cl)cc1 [Compound 12] (H-[Nlys][Gly(Nα-4-Cl-benzyl)][Nlys][Gly(Nα-4-Cl-benzyl)][Nlys][Gly(Nα-4-Cl-benzyl)][Nlys][Gly(Nα-4-Cl-benzyl)]-NH2), the “Minimal inhibitory concentration PA^g” value [1] was > 512 µg/mL, the “Minimal inhibitory concentration MRSE^d” value [2] was 2 µg/mL (≈ 1.59 µM) and the “Minimal inhibitory concentration MRSE^e” value [3] was 1 µg/mL (≈ 0.796 µM). For the same compound, the “Minimal inhibitory concentration MRSA^c” value [4] was 2 µg/mL (≈ 1.59 µM), the “Minimal inhibitory concentration SA^a” value (S. aureus ATCC 25923) was 4 µg/mL (≈ 3.18 µM) and the “Minimal inhibitory concentration SA^b” value (S. aureus ATCC 29213) was 4 to 8 µg/mL. For the same compound, the “Minimal inhibitory concentration EC^f” value (E. coli ATCC 25922) was 64 µg/mL (≈ 50.9 µM).
In the case of NCCCCNCC(=O)N(CC(=O)N(CCCCN)CC(=O)N(CC(=O)N(CCCCN)CC(=O)N(CC(=O)N(CCCCN)CC(=O)N(CC(N)=O)Cc1ccc(Br)cc1)Cc1ccc(Br)cc1)Cc1ccc(Br)cc1)Cc1ccc(Br)cc1 [Compound 13] (H-[Nlys][N(4-Br-benzyl)Gly][Nlys][N(4-Br-benzyl)Gly][Nlys][N(4-Br-benzyl)Gly][Nlys][N(4-Br-benzyl)Gly]-NH2), the “Minimal inhibitory concentration PA^g” value [1] is reported as > 512 µg/mL, the “Minimal inhibitory concentration MRSE^d” value [2] is reported as 2 µg/mL (≈ 1.39 µM) and the “Minimal inhibitory concentration MRSE^e” value [3] is reported as 4 µg/mL (≈ 2.79 µM). The “Minimal inhibitory concentration MRSA^c” value [4] was 2 µg/mL (≈ 1.39 µM), the “Minimal inhibitory concentration SA^a” value (S. aureus ATCC 25923) was 4 µg/mL (≈ 2.79 µM) and the “Minimal inhibitory concentration SA^b” value (S. aureus ATCC 29213) was 8 µg/mL (≈ 5.58 µM). For the same compound, the “Minimal inhibitory concentration EC^f” value (E. coli ATCC 25922) was 64 µg/mL (≈ 44.6 µM).
For NCCCCNCC(=O)N(CC(=O)N(CCCCN)CC(=O)N(CC(=O)N(CCCCN)CC(=O)N(CC(=O)N(CCCCN)CC(=O)N(CC(=O)N(CCCCN)CC(=O)N(CC(=O)N(CCCCN)CC(=O)N(CC(N)=O)Cc1ccc(F)cc1)Cc1ccccc1)Cc1ccc(F)cc1)Cc1ccccc1)Cc1ccc(F)cc1)Cc1ccccc1 [Compound 33] (H-[Nlys][Nphe][Nlys][N(4-F-Bzl)Gly][Nlys][Nphe][Nlys][N(4-F-Bzl)Gly][Nlys][Nphe][Nlys][N(4-F-Bzl)Gly]-NH2), the “Minimal inhibitory concentration PA^g” value [1] was 256 µg/mL (≈ 149 µM), the “Minimal inhibitory concentration MRSE^d” value [2] was 16 µg/mL (≈ 9.29 µM) and the “Minimal inhibitory concentration MRSE^e” value [3] was 4 µg/mL (≈ 2.32 µM). The “Minimal inhibitory concentration MRSA^c” value [4] was 128 µg/mL (≈ 74.3 µM), the “Minimal inhibitory concentration SA^a” value (S. aureus ATCC 25923) was 256 µg/mL (≈ 149 µM) and the “Minimal inhibitory concentration SA^b” value (S. aureus ATCC 29213) was 256 µg/mL (≈ 149 µM). For the same compound, the “Minimal inhibitory concentration EC^f” value (E. coli ATCC 25922) was 256 µg/mL (≈ 149 µM).
In the case of NCCCCNCC(=O)N(CC(=O)N(CCCCN)CC(=O)N(CC(=O)N(CCCCN)CC(=O)N(CC(=O)N(CCCCN)CC(=O)N(CC(=O)N(CCCCN)CC(=O)N(CC(=O)N(CCCCN)CC(=O)N(CC(N)=O)Cc1ccc(Cl)cc1)Cc1ccc(Cl)cc1)Cc1ccc(Cl)cc1)Cc1ccc(Cl)cc1)Cc1ccc(Cl)cc1)Cc1ccc(Cl)cc1 [Compound 30] (H-[Nlys][Gly(Nα-4-Cl-benzyl)][Nlys][Gly(Nα-4-Cl-benzyl)][Nlys][Gly(Nα-4-Cl-benzyl)][Nlys][Gly(Nα-4-Cl-benzyl)][Nlys][Gly(Nα-4-Cl-benzyl)][Nlys][Gly(Nα-4-Cl-benzyl)]-NH2), the “Minimal inhibitory concentration PA^g” value [1] is reported as > 512 µg/mL, the “Minimal inhibitory concentration MRSE^d” value [2] is reported as 2 µg/mL (≈ 1.07 µM) and the “Minimal inhibitory concentration MRSE^e” value [3] is reported as 1 µg/mL (≈ 0.533 µM). The “Minimal inhibitory concentration MRSA^c” value [4] was 2 µg/mL (≈ 1.07 µM), the “Minimal inhibitory concentration SA^a” value (S. aureus ATCC 25923) was 2 µg/mL (≈ 1.07 µM) and the “Minimal inhibitory concentration SA^b” value (S. aureus ATCC 29213) was 2 µg/mL (≈ 1.07 µM). The “Minimal inhibitory concentration EC^f” value (E. coli ATCC 25922) was 64 µg/mL (≈ 34.1 µM).
